Measured values published in patent US20190209506A1, “METHODS OF REDUCING OR PREVENTING OXIDATION OF LDL OR LIPID MEMBRANES IN A SUBJECT IN NEED THEREOF” (Amarin Pharmaceuticals Ireland Limited, priority 2018, published 2019).

Assays:
human sdLDL = assay: Copper-induced sdLDL oxidation, TBARS (Example 7); format: biochemical
Method: An experiment to study the antioxidant effect of EPA in LDL and small dense LDL (“sdLDL”) was performed. LDL and sdLDL were isolated from the plasma of healthy volunteers by iodixanol density gradient ultracentrifugation, and adjusted to a final apolipoprotein concentration of 2 mg/mL. […] Lipid oxidation was initiated with 10 μM CuSO4 and monitored by the colorimetric detection of thiobarbituric acid reactive substances (TBARS) for 1 hr. Vitamin E was also incubated with sample aliquots as a positive control.

[1] = Glucose-induced membrane lipid peroxidation (LOOH, CHOD-iodide assay) in DLPC/cholesterol vesicles (Examples 4, 5); format: biochemical; settings: 1.0 μM; glucose 200 mg/dL; 96 hours
Method: All test compounds were further diluted in ethanol or aqueous buffer as needed. Glucose was prepared in saline buffer (0.5 mM HEPES, 154 mM NaCl, pH 7.3) at 11.0 mM (200 mg/dL). CHOD-iodide color reagent (stock) was prepared, with slight modification, as described by from El-Saadani et al. (J. […] Samples were shell-dried under nitrogen gas and placed under vacuum for 1 h to remove residual solvent. […] Lipid suspensions were then vortexed for 3 min at ambient temperature to form MLVs. All MLV samples were subjected to time-dependent autoxidation by incubating at 37° C. in an uncovered, shaking water bath. This method allows lipid peroxidation to occur gradually without requiring the use of exogenous initiators. Small aliquots (5-100 μL) of each sample were removed, immediately following MLV preparation (0 hour) and after exposing samples to oxidative conditions for 72 or 96 hour, and combined with 1.0 mL of activated CHOD-iodide color reagent. Aliquot volume was reduced with each successive time point to ensure that spectrophotometric readings were within the optimal adsorption range. Test samples were covered and incubated in darkness at room temperature for at least 4 hr. Sample absorbances were then measured against a CHOD blank at 365 nm using a Beckman DU-640 spectrophotometer. The CHOD colorimetric assay is based on the oxidation of iodide (I^−) by lipid hydroperoxide (LOOH) to form triiodide the quantity of which is directly proportional to the amount of LOOH present in the lipid sample. The molar absorptivity (ε) of I3^− is 2.46×10^4 M^−1 cm^−1 at 365 nm. […] All MLV samples were subjected to time-dependent autoxidation by incubating at 37° C. in an uncovered, shaking water bath. This method allows lipid peroxidation to occur gradually without requiring the use of exogenous initiators. Small aliquots (5-100 μL) of each sample were removed, immediately following MLV preparation (0 hr) and after exposing samples to oxidative conditions for 72 or 96 hr, and combined with 1.0 mL of activated CHOD-iodide color reagent. Aliquot volume was reduced with each successive time point to ensure that spectrophotometric readings were within the optimal adsorption range. Test samples were covered and incubated in darkness at room temperature for at least 4 hr. Sample absorbances were then measured against a CHOD blank at 365 nm using a Beckman DU-640 spectrophotometer. […] The molar absorptivity (ε) of I3^− is 2.46×10^4 M^−1 cm^−1 at 365 nm.

human LDL = assay: Copper-induced oxidation of unfractionated LDL, TBARS (Example 7); format: biochemical; settings: 1 hour
Method: An experiment to study the antioxidant effect of EPA in LDL and small dense LDL (“sdLDL”) was performed. LDL and sdLDL were isolated from the plasma of healthy volunteers by iodixanol density gradient ultracentrifugation, and adjusted to a final apolipoprotein concentration of 2 mg/mL. […] Vitamin E was also incubated with sample aliquots as a positive control.

[2] = test system: rat renal glomerular endothelial cells; assay: NO and ONOO^− release ex vivo from glomerular endothelial cells exposed to oxLDL and high glucose (Example 13); format: cell-based; settings: 10.0 μM, 1 hr; oxLDL 11 mg/dL and glucose 300 mg/dL; vs vehicle
Method: Healthy male Wistar Kyoto (WKY) rats, aged 7-9 weeks and weighing 250±20 g, were obtained from inbred colonies (National Institutes of Health, Bethesda, Md.). Animals were housed in a controlled environment that provided food and water ad libitum prior to the study. […] Animals were sacrificed and tissue samples obtained immediately for experimentation. All procedures were conducted in accordance with standard Institutional Animal Care and Use Committee guidelines and conformed to the Guide for the Care and Use of Laboratory Animals published by the US National Institutes of Health.
Immediately after sacrificing the rats, kidneys were removed, cut into 100 μm sections and transferred to a separate organ chamber containing Dulbecco's phosphate buffered saline ([…]) and […] at pH 7.4. […]
The NO/ONOO− nanosensor was positioned near the surface of the endothelial cells using a computer-controlled M3301 micromanipulator (x-y-z resolution of 0.2 μm) and microscope (both from World Precision Instruments, Berlin, Germany) fitted with a CD camera. Each analyte was measured from amperograms and standard calibration curves collected under maximum current. […] Changes in current (proportional to the molar concentrations of NO or ONOO^− released) were monitored continuously immediately following CaI stimulation.

HMG-CoA reductase = molecular target: T1, HMG-CoA reductase (Homo sapiens, UniProt P04035); settings: metabolized by hepatic cytochrome P450; cited from earlier work
T1 sequence (P04035 1-888): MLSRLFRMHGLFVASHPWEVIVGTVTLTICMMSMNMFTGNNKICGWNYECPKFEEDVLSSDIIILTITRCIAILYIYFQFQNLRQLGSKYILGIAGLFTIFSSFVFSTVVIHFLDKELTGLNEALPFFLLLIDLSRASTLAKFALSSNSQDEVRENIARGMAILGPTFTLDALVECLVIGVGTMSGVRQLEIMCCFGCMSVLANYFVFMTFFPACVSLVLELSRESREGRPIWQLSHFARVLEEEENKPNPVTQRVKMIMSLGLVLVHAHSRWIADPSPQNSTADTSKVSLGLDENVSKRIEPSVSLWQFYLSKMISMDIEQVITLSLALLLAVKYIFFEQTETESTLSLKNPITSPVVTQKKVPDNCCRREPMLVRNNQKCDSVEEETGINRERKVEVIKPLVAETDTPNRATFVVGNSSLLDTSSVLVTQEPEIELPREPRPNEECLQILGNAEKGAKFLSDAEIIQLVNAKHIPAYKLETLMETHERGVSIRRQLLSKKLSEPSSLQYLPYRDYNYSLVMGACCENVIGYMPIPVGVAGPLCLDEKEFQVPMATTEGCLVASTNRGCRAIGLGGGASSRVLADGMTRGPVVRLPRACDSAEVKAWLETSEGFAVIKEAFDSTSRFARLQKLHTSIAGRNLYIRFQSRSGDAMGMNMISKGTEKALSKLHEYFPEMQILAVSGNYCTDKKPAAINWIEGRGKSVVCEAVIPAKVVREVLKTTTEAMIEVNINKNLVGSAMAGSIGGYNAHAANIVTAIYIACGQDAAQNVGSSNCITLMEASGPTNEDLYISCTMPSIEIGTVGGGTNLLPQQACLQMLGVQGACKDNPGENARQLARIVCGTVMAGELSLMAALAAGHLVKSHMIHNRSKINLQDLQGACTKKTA

SMILES	inhibition of sdLDL oxidation (human sdLDL; 0.5 μM, 1 hr) [%]	inhibition of sdLDL oxidation (human sdLDL; 1.0 μM, 1 hr, vs vehicle) [%]	inhibition of sdLDL oxidation (human sdLDL; highest dose, 1 hr) [%]	antioxidant effect (LOOH formation) [1]	effect on unfractionated LDL oxidation, dose dependence (human LDL)	increase of NO release [2] [%]	reduction of ONOO^− release [2] [%]	effect on sdLDL oxidation compared to vehicle-treated controls (human sdLDL; 10 μM, 1 hour)	inhibition of TBARS formation / sdLDL oxidation (human sdLDL; 10 μM, 1 hr, vs vehicle) [%]	effect on unfractionated LDL oxidation (human LDL; 10 μM)	share of circulating HMG-CoA reductase inhibitory activity accounted for by active metabolites (HMG-CoA reductase)
CC(C)c1c(C(=O)Nc2ccccc2O)c(-c2ccccc2)c(-c2ccc(F)cc2)n1CC[C@@H](O)C[C@@H](O)CC(=O)O [ATM, Atorvastatin ortho- (o-) hydroxy (active) metabolite]	5±5	18±5	90±2	separate and potent antioxidant effects	significant and dose-dependent inhibition of unfractionated LDL oxidation beginning at 1.0 μM	205	25				
CC(C)c1c(C(=O)Nc2ccccc2)c(-c2ccccc2)c(-c2ccc(F)cc2)n1CC[C@@H](O)C[C@@H](O)CC(=O)O [atorvastatin]								did not have any significant antioxidant activity	0.1±7	did not have any significant antioxidant activity	approximately 70%
